Where two headings read alike, the source gives them in different places.
What was measured:
[1] = biological target: T1, human M5 receptor (Homo sapiens, UniProt P08912); experiment: HTRF IP-One curve shift assay, M5; type: cell-based; conditions: M5
T1 construct: expressed in transfected cells
T1 sequence (P08912 1-532): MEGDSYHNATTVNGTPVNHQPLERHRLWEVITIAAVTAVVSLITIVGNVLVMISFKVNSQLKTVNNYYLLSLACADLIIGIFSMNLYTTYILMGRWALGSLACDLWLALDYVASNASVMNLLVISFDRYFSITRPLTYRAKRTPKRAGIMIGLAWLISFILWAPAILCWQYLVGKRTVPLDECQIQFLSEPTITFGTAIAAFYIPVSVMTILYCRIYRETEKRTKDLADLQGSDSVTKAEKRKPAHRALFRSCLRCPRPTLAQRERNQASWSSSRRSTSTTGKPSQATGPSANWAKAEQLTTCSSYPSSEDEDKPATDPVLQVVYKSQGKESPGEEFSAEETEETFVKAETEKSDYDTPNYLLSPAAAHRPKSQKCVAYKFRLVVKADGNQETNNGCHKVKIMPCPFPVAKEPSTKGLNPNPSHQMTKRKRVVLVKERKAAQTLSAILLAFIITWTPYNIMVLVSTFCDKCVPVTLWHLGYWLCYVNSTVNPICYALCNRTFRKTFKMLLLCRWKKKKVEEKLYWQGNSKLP
Experimental: HTRF IP-One assays were performed using frozen cell aliquots prepared from CHO-K1 cell lines stably expressing human M1, M3, or M5 receptors. Cells were frozen following typical cell freezing protocols. […] Dissociated cells were quenched in full media and collected by centrifugation at 290×g for 5 min. […] 1 mL aliquots of cells were dispensed into cryovial tubes and frozen in a controlled rate cryo-freezer container at −80° C. Cells were stored at −80° C. (or in liquid nitrogen if stored for at least six months) until the day of the assay.
On the day before the assay, frozen cells were rapidly thawed in a 37° C. water bath, brought up in 20 mL of full media, and collected via centrifugation at 290×g for 5 min. […] Next, […] of cells (10,000 cells/well) were dispensed into 384-well coming plates in triplicate. Cells were incubated overnight in a 37° C., 5% CO2 cell incubator.
Then, 2 μL of test compounds were added to the cells and incubated for 10 min at 37° C. in a 5% CO2 cell incubator. Next, 2 μL of diluted agonists serially diluted in assay buffer at 7× final assay concentration was added to assay plates. Finally, assay plates were incubated for two hours at 37° C. in a 5% CO2 cell incubator.
Six μL of IP-1 detection reagents (IP-One Gq HTRF kit, Cisbio Cat #62IPAPEJ) were dispensed to the cells. First, the plates were incubated for two hours at room temperature (IP-One detection reagents were made according to Cisbio protocol). Then, plates were read on an Envision plate reader following the Cisbio guidelines.
(§1) Raw data for all assays was transmitted directly from plate readers into the Beacon database for processing. All assay plates contained positive and negative control wells for data normalization and scaling. […] All control wells contained DMSO at a final assay concentration that matched the test compound wells.
Counts from the standard curve wells were used to generate a sigmoidal standard curve, which was used to transform the raw counts from each well on the plate (scaling control wells and compound wells) into a pmol/well IP1 value.

[2] = biological target: T2, human M4 receptor (Homo sapiens, UniProt P08173); experiment: SPA GTP (GTPgS) binding curve shift assay, M4; type: biochemical
T2 construct: expressed in transfected cells
T2 sequence (P08173 1-479): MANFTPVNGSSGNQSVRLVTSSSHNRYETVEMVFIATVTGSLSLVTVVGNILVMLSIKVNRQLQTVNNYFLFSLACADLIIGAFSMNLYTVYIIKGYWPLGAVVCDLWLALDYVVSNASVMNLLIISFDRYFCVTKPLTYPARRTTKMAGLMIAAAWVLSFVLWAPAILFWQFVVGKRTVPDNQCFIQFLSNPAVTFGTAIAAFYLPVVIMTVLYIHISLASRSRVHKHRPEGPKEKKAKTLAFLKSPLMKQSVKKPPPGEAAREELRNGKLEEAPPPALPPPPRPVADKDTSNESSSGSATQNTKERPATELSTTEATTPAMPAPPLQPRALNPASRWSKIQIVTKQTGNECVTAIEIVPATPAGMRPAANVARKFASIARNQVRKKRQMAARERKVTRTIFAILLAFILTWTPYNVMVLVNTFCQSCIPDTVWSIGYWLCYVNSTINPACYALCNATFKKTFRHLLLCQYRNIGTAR
Experimental: Membranes were prepared for GTPgS binding assays from CHO-K1 cells stably expressing human M2 or human M4 receptors. Cells were grown in 5-layer cell culture flasks. Cells were washed with 50 mL of PBS and then dissociated with 0.05% trypsin. Dissociated cells were then collected by centrifugation at 650×g for 8 min at 4° C. Pellets were rewashed in PBS by centrifugation and resuspended in 30 mL of 20 mM HEPES, 10 mM EDTA, pH 7.4. After sitting on ice for 30 min, membranes were collected by centrifugation at 50000×g for 15 min at 4° C., resuspended in 30 mL of 20 mM HEPES, 0.1 mM EDTA, pH 7.4, and collected again by centrifugation. Pellets were then washed twice by centrifugation in 30 mL of 20 mM HEPES, pH 7.4, and stored at −80° C. until the day of the assay. On the day of the assay, pellets were thawed on ice and resuspended in 1 mL of 20 mM HEPES, pH 7.4, 10 mM MgCl2, and 100 mM NaCl using Dounce homogenization.
According to Promega guidelines, membrane protein concentration was determined by BCA protein assay (Promega, Madison, WI).
On the day of the assay, serial dilutions of test PAM compounds were brought up in assay buffer (20 mM HEPES, 10 mM MgCl2; see Table 4 for NaCl concentrations) at four times the final assay concentration. […] of membrane homogenates (containing […] of membrane protein) were prepared in assay buffer supplemented with GDP at 4× final assay concentration (see Table 4 for GDP concentrations) and dispensed into 96 well polypropylene, U-bottom Greiner plates. Membrane plates were incubated for 10 min at room temperature with gentle shaking. Then, 25 μL of test compounds were added to assay plates. Plates were then incubated, with shaking, for an additional 10-15 min. Then, 25 μL of diluted agonists serially diluted in assay buffer at 4× final assay concentration was added to assay plates. Plates were then incubated, with shaking, for an additional 10-15 min. Next, […] of 0.4 nM ^35S-GTP (Perkin Elmer, Waltham, MA) in assay buffer was added to assay mixtures. The binding reaction was left on the shaker for 1 h at room temperature. Membranes in assay reactions were then transferred to GF/C filter plates (UniFilter, Perkin Elmer) and washed three times using FilterMate Harvester (Perkin Elmer) with cold assay buffer containing no GDP. Filter plates were then dried at 40° C. overnight, and […] of Beta Plate Scintillation liquid was added. Plates were top and bottom sealed before being read on the TopCount scintillation counter (Perkin Elmer, Waltham, MA).
as §1
For GTPgS assays, the negative control wells were defined as 0% response. The highest response in a plate was scaled to 1, representing 100% response. Data from test compound wells was scaled to these controls and are reported as % control values. This was done to allow for subsequent GraphPad cooperativity analysis, setting the maximal response at no more than 1.

- Emax ([1]; Emraclidine concentration 41.2 nM, read-out: Emax): 77.7%
- Emax at […] ([1]; Emraclidine concentration […], read-out: Emax): 72.3%
- Emax ([1]; MK-4710 concentration 0 nM): 71.2%
- Emax ([1]; MK-4710 concentration 1110 nM, read-out: Emax): 78.1%
- Emax ([1]; MK-4710 concentration 3330 nM, read-out: Emax): 78.8%
- Emax at […] ([1]; MK-4710 concentration […], read-out: Emax): 77.7%
- Emax ([2]; MK-4710 concentration 0 nM): 67.6%
- Emax at […] ([2]; MK-4710 concentration […]): 76.8%
Compound: CC(=O)OCC[N+](C)(C)C [acetylcholine, reference compound]

— patent US20250228832A1, “METHODS FOR TREATING DISORDERS AMELIORATED BY MUSCARINIC RECEPTOR ACTIVATION” (KARUNA THERAPEUTICS, INC., priority 2022, published 2025)
